Source: ChEMBL document CHEMBL1123473, “4,5-Disubstituted primaquine analogues as potential antimalarial agents” (1986)

How the values were obtained:
[1] = test system: Rhesus monkey; test: Number of days between the end of the treatment and relapse was reported at a dose 1.0 mg/kg; assay type: functional, Cercopithecidae
[2] = test system: Plasmodium cynomolgi; test: Antimalarial activity against Plasmodium cynomolgi in rhesus monkey at a dose 0.1 mg/kg; 0 of 1; assay type: functional
[3] = test system: Plasmodium cynomolgi; test: Antimalarial activity against Plasmodium cynomolgi in rhesus monkey 1.0 mg/kg; 0 of 2; assay type: functional
[4] = test system: Rhesus monkey; test: Number of days between the end of the treatment and relapse was reported at a dose 0.1 mg/kg; assay type: functional, Cercopithecidae
[5] = test system: Plasmodium cynomolgi; test: Antimalarial activity against Plasmodium cynomolgi in rhesus monkey 1.0 mg/kg; 1 of 2; assay type: functional
[6] = test system: Plasmodium cynomolgi; test: Antimalarial activity against Plasmodium cynomolgi in rhesus monkey 0.316 mg/kg; 0 of 1; assay type: functional
[7] = test system: Rhesus monkey; test: Number of days between the end of the treatment and relapse was reported at a dose 0.316 mg/kg; assay type: functional, Cercopithecidae
[8] = test system: Plasmodium cynomolgi; test: Antimalarial activity against Plasmodium cynomolgi in rhesus monkey 1.0 mg/kg; 0 of 1; assay type: functional
[9] = test system: Plasmodium cynomolgi; test: Antimalarial activity against Plasmodium cynomolgi infected rhesus monkey at 0.75 mg/kg dose; 4 of 6; assay type: functional
[10] = test system: Plasmodium cynomolgi; test: Antimalarial activity against Plasmodium cynomolgi infected rhesus monkey at 0.25 mg/kg dose; 0 of 6; assay type: functional
[11] = test system: Plasmodium cynomolgi; test: Antimalarial activity against Plasmodium cynomolgi infected rhesus monkey at 0.5 mg/kg dose; cured 4 of 6; assay type: functional
[12] = test system: Plasmodium cynomolgi; test: Antimalarial activity against Plasmodium cynomolgi in rhesus monkey 1.0 mg; 2 of 2; assay type: functional
[13] = test system: Plasmodium cynomolgi; test: Antimalarial activity against Plasmodium cynomolgi in rhesus monkey 0.316 mg/kg; 1 of 2; assay type: functional
[14] = test system: Plasmodium cynomolgi; test: Antimalarial activity against Plasmodium cynomolgi in rhesus monkey at a dose 0.1 mg/kg; 0 of 2; assay type: functional
[15] = test system: Plasmodium cynomolgi; test: Antimalarial activity against Plasmodium cynomolgi infected rhesus monkey at 0.25 mg/kg; 2 of 2; assay type: functional
[16] = test system: Plasmodium cynomolgi; test: Antimalarial activity against Plasmodium cynomolgi infected rhesus monkey at 0.5 mg/kg dose; 1 of 1; assay type: functional
[17] = test system: Plasmodium cynomolgi; test: Antimalarial activity against Plasmodium cynomolgi infected Rhesus monkeys (Macaca mulatta) at 0.0625 mg/kg dose; cured 0 of 2; assay type: functional
[18] = test system: Plasmodium cynomolgi; test: Antimalarial activity against Plasmodium cynomolgi in rhesus monkey at a dose 0.125 mg/kg; 2 of 2; assay type: functional

Work on `COc1cc(NC(C)CCCN)c2nccc(COc3cccc(C(F)(F)F)c3)c2c1Oc1cccc(C(F)(F)F)c1` (centres undefined) yielded a Relapses [1] of 11, a Cures [2] of 0 and a Cures [3] of 0. It also gave a Relapses [4] of 11.
`C=Cc1ccnc2c(NC(C)CCCN)cc(OC)c(OC)c12` (centres undefined) was tested, and the Relapses [1] was 27, the Cures [2] was 0 and the Relapses [4] was 9. For the same compound, the Cures [5] was 1, the Cures [6] was 0 and the Relapses [7] was 23.
`COc1cc(NC(C)CCCN)c2nccc(COc3cccc(C(F)(F)F)c3)c2c1OC` (centres undefined) showed a Relapses [1] of 12 and a Cures [8] of 0.
`COc1cc(NC(C)CCCN)c2ncccc2c1` (centres undefined) [PRIMAQUINE] gave a Cures [9] of 4, a Cures [10] of 0 and a Cures [11] of 4.
`COCc1ccnc2c(NC(C)CCCN)cc(OC)c(Oc3cccc(C(F)(F)F)c3)c12` (centres undefined) gave a Cures [12] of 2, a Cures [13] of 1 and a Cures [14] of 0. It also gave a Relapses [4] of 8 and a Relapses [7] of 28.
Compound `COc1cc(NC(C)CCCN)c2nccc(C)c2c1OC` (centres undefined) has a Cures [15] of 2, a Cures [16] of 1 and a Cures [17] of 0. For the same compound, the Cures [18] was 2.
